From US8680148B2, “Metallo-desferrioxamine complexes and their use in the treatment of bacterial infections” (priority 2006, dated 2014)
Read-outs that look alike come from different tables or passages of the source.

How the values were obtained:
[1] = test system: Pseudomonas aeruginosa biofilm; assay: Static biofilm formation in microtiter dish wells (crystal violet binding); type: cell-based; details: 18 h
Description: (§1) Bacterial strains and culture conditions. Pseudomonas aeruginosa PAO1 or PAO1 derivatives were used for all experiments except where noted. For flow cell biofilm experiments, strains containing the GFP expression vector pMRP9-1 were used. Both flow cell and disc reactor biofilms were grown in 1% Tryptic Soy Broth (TSB) (Becton Dickinson, Sparks, Md.) as were planktonic cultures. All cultures were incubated at 37° C. unless otherwise indicated. For the static biofilm formation assay we used M63 minimal medium supplemented with glucose (0.2%), arginine (0.4%) and MgSO4 (1 mM).
Pseudomonas aeruginosa biofilms were studied in three different ways. To evaluate gallium-desferrioxamine as a biofilm-blocking agent, the biofilm formation under static growth conditions was measured in microtiter dish wells. Biofilms were grown under static conditions in 96-well microtiter dishes for 18 h at 37° C. in M63 medium with or without added agents as indicated. Attached biomass was stained with crystal violet and the degree of crystal violet staining was measured.
FIG. 2 illustrates the biofilm growth of Pseudomonas aeruginosa cells in polyvinylchloride microtiter dish wells after treatment for 18 hours with desferrioxamine, Ga, gentamicin, or desferrioxamine-Ga. The concentrations used for each compound were 1 μM for DFO, Ga and DFO-Ga, and 0.1 μg/mL for Gm. Attached biofilm biomass was determined by measuring crystal violet binding.

[2] = test system: stationary phase Pseudomonas aeruginosa cells; assay: Survival of stationary phase Pseudomonas aeruginosa cells (plating on LB agar); type: cell-based; details: 24 h
Description: The minimal inhibitory concentrations (MICs) of various agents were determined by using 96-well plates. Each well contained 100 μl of 1% TSB plus test compound. The inoculum was 5×10^5 Pseudomonas aeruginosa cells per well. To test the effect of agents on survival of stationary phase cells, cultures inoculated with 10^5 cells per ml and incubated for 18 h at 37° C. with aeration were used. The 18-h cultures were centrifuged. The pelleted cells were washed twice and suspended in a volume of fresh medium equal to the original culture volume. The cells were incubated at 37° C. for an additional 2 h with shaking and then exposed to the test compounds at the indicated concentrations for 24 h. Viability was determined by plating dilutions on LB agar. FIG. 1 illustrates the survival of stationary phase Pseudomonas aeruginosa cells treated for 24 hours with desferrioxamine (DFO), gentamicin (Gm), gallium (Ga), gallium-desferrioxamine (DFO-Ga), DFO and Gm, Ga and Gm, and DFO-Ga and Gm. The concentrations used for each compound were 0.1 mM (shaded) or 1 mM (dark) for DFO, Ga or DFO-Ga and […] for Gm. […] Because gallium-desferrioxamine and gentamicin exert their antimicrobial effects via different mechanisms, the two agents were combined and the combined treatment results in a six-log reduction in viable cells.

Pseudomonas aeruginosa [3] = assay: Minimal inhibitory concentration on planktonic Pseudomonas aeruginosa, 96-well plates; type: cell-based; details: low iron medium
Description: The effect of gallium-desferrioxamine on planktonic Pseudomonas aeruginosa was first examined in a low iron medium. […] When in the stationary phase, Pseudomonas aeruginosa is not effectively killed by antibiotics.
as §1
The minimal inhibitory concentrations (MICs) of various agents were determined by using 96-well plates. Each well contained 100 μl of 1% TSB plus test compound. The inoculum was 5×10^5 Pseudomonas aeruginosa cells per well. To test the effect of agents on survival of stationary phase cells, cultures inoculated with 10^5 cells per ml and incubated for 18 h at 37° C. with aeration were used. The 18-h cultures were centrifuged. The pelleted cells were washed twice and suspended in a volume of fresh medium equal to the original culture volume. […] Viability was determined by plating dilutions on LB agar.

[4] = test system: Staphylococcus aureus (MRSA strain) biofilm; assay: Spinning disc reactor biofilms of MRSA S. aureus; type: cell-based; details: 1 mM, 24 h
Description: The effect of gallium-desferrioxamine against the drug resistant bacterial was investigated. The efficacy of DFO-Ga against common biofilm pathogens Staphylococcus aureus (MRSA strain) and Escherichia coli was examined. Biofilms were grown using the spinning disc reactor system as above. Spinning disc reactor biofilms with E. coli or MRSA S. aureus were treated for 24 h. The concentration of DFO-Ga in both treatments was (1 mM). In the E. coli treatment, the concentration of Gm was 10 μg/ml and for the combination of DFO-Ga (1 mM) and Gm (10 μg/ml).
As shown FIG. 12B, DFO-Ga was able to reduce the viable Staphylococcus aureus biofilm bacteria by approximately 3 log units.

[5] = systemic treatment, ischemia and reperfusion; cited from earlier work
[6] = test system: P. aeruginosa clinical isolates biofilms; assay: Spinning disc reactor biofilms of 15 clinical isolates; type: cell-based, Pseudomonas aeruginosa; details: 24 h
Description: To verify that the sensitivities observed with laboratory strain of P. aeruginosa (PAO1) would hold with other clinical isolates of the bacterium, 15 clinical isolates of the same bacterium obtained from CF, eye and wound infected patients were screened. The group of isolates tested included mucoid strains, and strains with a variety of drug resistance profiles. The spinning-disc biofilm reactor system was utilized. In this system biofilms are grown under a flow of medium and at high shear forces. After 24 h in a flow of medium the polycarbonate chips with attached biofilm bacteria were removed from the spinning disc and washed 3 times in PBS. All incubations for spinning disc experiments were at 37° C. These biofilms were then exposed to Gm (50 μg/ml), DFO-Ga (1 mM) or a combination of gallium-desferrioxamine […] in water for 24 h. To estimate the number of remaining attached biofilm cells, we placed the discs in 1 ml PBS and dispersed the cells by using a tissue homogenizer (Brinkman Homogenizer, Westbury, N.Y.). Viable cell numbers were determined by plating on LB agar. […]

[7] = test system: pvdA-GFP iron starvation promoter fusion; assay: Iron starvation reporter (pvdA-GFP) fluorescence in PAO1; type: cell-based, Pseudomonas aeruginosa; details: 1 mM, 1 h at 37° C.
Description: To study the effect of DFO-Ga on iron regulation in the cell, a P. aeruginosa PAO1 strain-carrying GFP fused to an iron starvation promoter (pvdA-GFP) was constructed. The promoter is induced under iron limitation. Free living PAO1 carrying pvdA-GFP fusion, i.e., an iron starvation reporter fusion, 10^9 cell/ml in 1% TSB were exposed to […] Ga (1 mM), DFO (1 mM), or DFO-Ga (1 mM) for 1 h at 37° C.

[8] = test system: Pseudomonas aeruginosa biofilm; assay: Flow cell biofilms, confocal microscopy (GFP, propidium iodide); type: cell-based; details: for killing of cells in six-day old biofilm (propidium iodide staining): 24 h
Description: as §1
The development of biofilms under a continuous flow of medium was followed in microscope observation chambers. To visualize biofilms grown under a continuous flow of medium, flow cells and confocal microscopy with an incubation temperature of 25° C. were used. An agent was added to the medium at the beginning of an experiment to determine whether the agent prevented biofilm formation. To determine the affect of an agent on mature biofilms, the biofilm was allowed to grow for six days prior to addition of the test compound. To discriminate live and dead cells, propidium iodide (PI, 30 μM, Sigma Chemical Co., St. Louis, Mo.) was used.
FIG. 3 compares 3D-reconstructed confocal microscope images of six-day old biofilms of Pseudomonas aeruginosa cells expressing GFP treated for 24 hours with gentamicin (0.1 μg/mL), desferrioxamine (1 μM), gallium (1 μM), and gallium-desferrioxamine (1 μM).
FIGS. 4-8 compare the survival of P. aeruginosa in a six-day old biofilms stained with propidium iodide under with different treatment.

[9] = test system: Pseudomonas aeruginosa biofilm; assay: Spinning disc reactor biofilms, viable cell counts; type: cell-based; details: 24 h
Description: A spinning disc reactor as a third method was used to study biofilms. The biofilms grown under different conditions were tested and the activity of gallium-desferrioxamine against biofilms grown in a spinning disc reactor under continuous flow with high shear was examined. In this system biofilms are grown under a flow of medium and at high shear forces. After 24 h in a flow of medium, the polycarbonate chips with attached biofilm bacteria were removed from the spinning disc and washed 3 times in PBS. All incubations for spinning disc experiments were at 37° C. These biofilms were then exposed to the indicated agents in water for 24 h. Cells that detached from the biofilm during the treatment were enumerated by plating on LB agar. To estimate the number of remaining attached biofilm cells, the discs were placed in 1 ml PBS and the cells were dispersed by using a tissue homogenizer (Brinkman Homogenizer, Westbury, N.Y.). Viable cell numbers were determined by plating on LB agar. […] Furthermore, when gallium-desferrioxamine and gentamicin are used together, viability is reduced by almost 6 logs, leaving only a few viable cells.

[10] = ferric iron; cited from earlier work
[11] = divalent ions; cited from earlier work
[12] = trivalent aluminium ions; cited from earlier work
[13] = topical application, alkali burn; cited from earlier work
Pseudomonas aeruginosa [14] = assay: Rabbit cornea infection (keratitis) with P. aeruginosa, topical treatment; type: in vivo; details: 0.5% gentamicin eye drops

Compound: CC(=O)N([O-])CCCCCNC(=O)CCC(=O)N([O-])CCCCCNC(=O)CCC(=O)N([O-])CCCCCN.[Ga+3] [gallium-desferrioxamine]
- biofilm formation ([1]; 1 μM): effectively blocked
- killing relative to gentamicin ([2]; 1 mM, versus gentamicin 10 μg per ml): 10-100 times
- minimal inhibitory concentration (MIC) (Pseudomonas aeruginosa [3]): 32 µM
- reduction of viable Staphylococcus aureus biofilm bacteria [4]: approximately 3 log units
- damage to the retina [5]: reduced damage to the retina
- log killing ([6]; DFO-Ga 1 mM): 3.02 log
- induction in relative fluorescence compared to non-treated controls [7]: four
- biofilm formation under continuous flow ([8]; 1 μM, flow cell): completely blocks biofilm formation
- killing of cells in six-day old biofilm (propidium iodide staining) ([8]; 1 mM): causes death of cells throughout the mushroom-like structures
- decrease in cell counts ([9]; 1 mM): 3-4 log

Compound: CC(=O)N(O)CCCCCNC(=O)CCC(=O)N(O)CCCCCNC(=O)CCC(=O)N(O)CCCCCN [desferrioxamine]
- complex formation constant [10]: 10^31
- biofilm formation ([1]; 1 μM): does not affect biofilm formation
- growth inhibition (highest concentration without inhibition) (Pseudomonas aeruginosa [3]): > 1 mM
- complex formation constant [11]: ≤ 10^14
- complex formation constant [12]: 10^25
- killing of cells in six-day old biofilm (propidium iodide staining) ([8]; 1 mM): does not appear to kill cells in mushroom-like structures

Compound: [Ga] [gallium]
- biofilm formation ([1]; 1 μM): effectively blocked
- reduction in fluorescence [7]: two
- killing of cells in six-day old biofilm (propidium iodide staining) ([8]; 1 mM): killing of cells in the outer regions of the biofilm only

Compound: zinc-desferrioxamine
- corneal damage [13]: reduced corneal damage
- damage to the retina [5]: reduced damage to the retina

Compound: gentamicin
- biofilm formation ([1]; 0.1 μg per ml): does not affect biofilm formation
- reduction of viability ([2]; gentamicin 10 μg per ml): three
- scarring (Pseudomonas aeruginosa [14]): significant scarring persists
- time to resolution of the infection (Pseudomonas aeruginosa [14]): ≤ 120 h
- log killing ([6]; Gm 50 μg/ml): 0.95 log
- killing of cells in six-day old biofilm (propidium iodide staining) ([8]; 50 μg/ml): killing of cells in the outer regions of the biofilm only
- decrease in cell counts ([9]; 50 μg/mL): 2 log
